Patent publication US20040156851A1, “HMGB1 combination therapies” (Critical Therapeutics, Inc., priority 2002, published 2004)

How the values were obtained:
[1] = target: RAGE on RAW 264.7 cells (mouse (murine RAW 264.7 cells)) (UniProt Q62151); assay: cell-based or functional assay
RAW 264.7 cells = assay: TNF release from RAW 264.7 cells stimulated with HMGB1, mutants or B box peptides (L929 cytotoxicity bioassay); format: cell-based, murine; settings: for TNF release by synthetic B box peptide fragments: synthetic peptide 10 μg/ml, 10 hours (FIG. 3)
Procedure: Murine macrophage-like RAW 264.7 cells (American Type Culture Collection, Rockville, Md.) were cultured in RPMI 1640 medium (Life Technologies, Grand Island, N.Y.) supplemented with 10% fetal bovine serum (Gemini, Catabasas, Calif.), penicillin and streptomycin (Life Technologies) and were used at 90% confluence in serum-free Opti-MEM I medium (Life Technologies, Grand Island, N.Y.). […] Polymyxin B was not used in experiments of synthetic peptide studies.
TNF release was measured by a standard murine fibroblast L929 (ATCC, American Type Culture Collection, Rockville, Md.) cytotoxicity bioassay (Bianchi et al., Journal of Experimental Medicine 183:927-936, 1996) with the minimum detectable concentration of 30 pg/ml. Recombinant mouse TNF was obtained from R&D system Inc., (Minneapolis, Minn.). Murine fibroblast L929 cells (ATCC) were cultured in DMEM (Life Technologies, Grand Island, N.Y.) supplemented with 10% fetal bovine serum (Gemini, Catabasas, Calif.), penicillin (50 units/ml) and streptomycin (50 μg/ml) (Life Technologies) in a humidified incubator with 5% CO2.
The effect of the mutants on TNF release from Murine macrophage-like RAW 264.7 cells (ATCC) was carried out as follows. RAW 264.7 cells were cultured in RPMI 1640 medium (Life Technologies, Grand Island, N.Y.) supplemented with 10% fetal bovine serum (Gemini, Catabasas, Calif.), penicillin and streptomycin (Life Technologies). Polymyxin (Sigma, St. Louis, Mo.) was added at 100 units/ml to suppress the activity of any contaminating LPS. Cells were incubated with 1 μg/ml of full length (wild-type) HMGB1 and each HMGB1 mutant protein in Opti-MEM I medium for 8 hours. Conditioned supernatants (containing TNF which had been released from the cells) were collected and TNF released from the cells was measured by a standard murine fibroblast L929 (ATCC) cytotoxicity bioassay (Bianchi et al., supra) with the minimum detectable concentration of 30 pg/ml. Recombinant mouse TNF was obtained from R & D Systems Inc., (Minneapolis, Minn.) and used as control in these experiments. Data in FIG. 1 are all presented as mean±SEM unless otherwise indicated. (N=6−10).
To further examine the effect of HMGB1 B box on cytokine production, varying amounts of HMGB1 B box were evaluated for the effects on TNF, IL-1B, and IL-6 production in murine macrophage-like RAW 264.7 cells. Conditioned media were harvested and measured for TNF, IL-1β and IL-6 levels. TNF levels were measured as described herein, and IL-1β and IL-6 levels were measured using the mouse IL-1β and IL-6 enzyme-linked immunosorbent assay (ELISA) kits (R&D System Inc., Minneapolis, Minn.) and N>5 for all experiments.
The kinetics of B box-induced TNF release were also examined. TNF release and TNF mRNA expression were measured in RAW 264.7 cells induced by B box polypeptide or GST tag polypeptide only (used as a control (vector)) (10 μg/ml) for 0 to 48 hours. Supernatants were analyzed for TNF protein levels by an L929 cytotoxicity assay (N=3-5) as described herein. For mRNA measurement, cells were plated in 100 mm plates and treated in Opti-MEM I medium containing B box polypeptide or the vector alone for 0, 4, 8, or 24 hours, as indicated in FIG. 2D. The vector only sample was assayed at the 4 hour time point. Cells were scraped off the plate and total RNA was isolated using the RNAzol B method in accordance with the manufacturer's instructions (Tel-Test “B”, Inc., Friendswood, Tex.). TNF (287 bp) was measured by RNase protection assay (Ambion, Austin, Tex.). Equal loading and the integrity of RNA was verified by ethidium bromide staining of the RNA sample on an agarose-formaldehyde gel. […] TNF mRNA expression was maximal at 4 hours and decreased at 8 and 24 hours. […] A similar study was carried out measuring TNF protein released from RAW 264.7 cells 0, 4, 8, 24, 32 or 48 hours after administration of B box or vector only (GST tag), using the L929 cytotoxicity assay described herein. […]

[2] = target: Recombinant full length human HMGB1 (wild type HMGB1) (human); assay: cell-based or functional assay
[3] = tested on: HMGB1 induced TNF release; assay: A box inhibition of HMGB1 induced TNF release from RAW 264.7 cells; format: cell-based, murine; settings: co-addition with HMGB1, 16 hours, TNF ELISA (FIG. 4B)
Procedure: Weak agonists are by definition antagonists. […] This study was carried out as follows. Sub-confluent RAW 264.7 cells in 24-well dishes were treated with HMGB1 (1 μg/ml) and 0, 5, 10, or 25 μg/ml of A box for 16 hours in Opti-MEM I medium in the presence of polymyxin B (100 units/ml). The TNF-stimulating activity (assayed using the L929 cytotoxicity assay described herein) in the sample receiving no A box was expressed as 100%, and the inhibition by A box was expressed as percent of HMGB1 alone. […] Data in FIG. 4A are presented as mean±SD (n=2-3 independent experiments).
Antagonism of full length HMGB1 activity by HMGB1 A box or GST tag (vector control) was also determined by measuring TNF release from RAW 264.7 macrophage cultures stimulated by co-addition of A box with full length HMGB1. RAW 264.7 macrophage cells (ATCC) were seeded into 24-well tissue culture plates and used at 90% confluence. The cells were treated with HMGB1, and/or A boxes as indicated for 16 hours in Optimum I medium (Life Technologies, Grand Island, N.Y.) in the presence of polymyxin B (100 units/ml, Sigma, St. Louis, Mo.) and supernatants were collected for TNF measurement (mouse ELISA kit from R&D System Inc, Minneapolis, Minn.). TNF-inducing activity was expressed as a percentage of the activity achieved with HMGB1 alone. […]

[4] = tested on: Balb/c mice subjected to CLP; assay: Cecal ligation and puncture (CLP) sepsis, survival of Balb/c mice; format: in vivo
Procedure: Cecal ligation and puncture (CLP) was performed as described previously (Fink and Heard, J. Surg. Res. 49:186-196, 1990; Wichmann et al., Crit. Care Med. 26:2078-2086, 1998; and Remick et al., Shock 4:89-95, 1995). Briefly, Balb/c mice were anesthetized with 75 mg/kg ketamine (Fort Dodge, Fort Dodge, Iowa) and 20 mg/kg of xylazine (Bohringer Ingelheim, St. Joseph, Mo.) intramuscularly. A midline incision was performed, and the cecum was isolated. A 6-0 prolene suture ligature was placed at a level 5.0 mm from the cecal tip away from the ileocecal valve.
The ligated cecal stump was then punctured once with a 22-gauge needle, without direct extrusion of stool. The cecum was then placed back into its normal intra-abdominal position. […] Mortality was recorded for up to 1 week after the procedure; survivors were followed for 2 weeks to ensure no late mortalities had occurred.
To determine whether the HMGB1 A box can inhibit the lethality of HMGB1 during sepsis, mice were subjected to cecal perforation and treated by administration of A box beginning 24 hours after the onset of sepsis. […] Survival was monitored twice daily for up to 2 weeks to ensure no late death occurred. […]
Passive immunization of critically ill septic mice with anti-HMGB1 antibodies was also assessed. […] Survival was monitored for 2 weeks. […]

RAGE on RAW 264.7 cells (mouse (murine RAW 264.7 cells)), sequence (Q62151 23-402): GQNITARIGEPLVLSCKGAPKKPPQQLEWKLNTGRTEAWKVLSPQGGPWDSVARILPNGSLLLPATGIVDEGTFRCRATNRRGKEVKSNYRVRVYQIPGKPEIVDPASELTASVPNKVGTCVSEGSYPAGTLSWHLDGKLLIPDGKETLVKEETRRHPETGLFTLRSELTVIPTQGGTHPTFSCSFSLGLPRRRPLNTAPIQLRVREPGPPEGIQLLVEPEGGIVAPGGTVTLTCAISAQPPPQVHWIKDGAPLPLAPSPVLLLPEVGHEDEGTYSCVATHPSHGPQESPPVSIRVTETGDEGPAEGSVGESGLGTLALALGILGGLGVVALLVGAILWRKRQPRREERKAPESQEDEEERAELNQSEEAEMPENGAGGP

Molecule: Recombinant full length human HMGB1 (wild type HMGB1) (from UniProt A9RA84 1-215) (ligand)
- decrease of HMGB1 (1 µg/ml) induced TNF release from RAW 264.7 cells by anti-RAGE antibody (25 µg/ml) [1]: 40%

Molecule: 30-49: Synthetic peptide fragment containing amino acids 30-49 of the HMGB1 B box (SEQ ID NO:20) (PGLSIGDVAKKLGEMWNNTA; listed as Homo sapiens)
- TNF release by synthetic B box peptide fragments (RAW 264.7 cells): did not induce TNF release

Molecule: 60-74: Synthetic peptide fragment containing amino acids 60-74 of the HMGB1 B box (SEQ ID NO:20) (AAKLKEKYEKDIAAY; listed as Homo sapiens)
- TNF release by synthetic B box peptide fragments (RAW 264.7 cells): did not induce TNF release

Molecule: HMGB1 Amino terminus+A box mutant (human HMGB1 A box polypeptide) (from UniProt A9RA84 1-85)
- inhibition of HMGB1 (1 µg/ml) induced TNF release from RAW 264.7 cells, L929 cytotoxicity assay [2]: 7.5 µg/mL

Molecule: fkdpnapkrlpsafflfcse (FKDPNAPKRLPSAFFLFCSE; listed as Homo sapiens) [1-20-mer]
- TNF stimulating potency compared with full length B box and HMGB1 (RAW 264.7 cells; peptide 10 μg/ml vs B box 1 μg/ml, 10 hours): less potent than either the full length synthetic B box (1-74-mer), or full length HMGB1
- TNF release by synthetic B box peptide fragments (RAW 264.7 cells): TNF-stimulating activity was retained

Molecule: 16-25: Synthetic peptide fragment containing amino acids 16-25 of the HMGB1 B box (SEQ ID NO:20) (LFCSEYRPKI; listed as Homo sapiens)
- TNF release by synthetic B box peptide fragments (RAW 264.7 cells): did not induce TNF release

Molecule: 45-64: Synthetic peptide fragment containing amino acids 45-64 of the HMGB1 B box (SEQ ID NO:20) (WNNTAADDKQPYEKKAAKLK; listed as Homo sapiens)
- TNF release by synthetic B box peptide fragments (RAW 264.7 cells): did not induce TNF release

B1: A box: Human HMGB1 mutant containing only the A box, SEQ ID NO:21 (A box SEQ ID NO:22) (protein, listed as Homo sapiens)
chain: MGKGDPKKPTGKMSSYAFFVQTCREEHKKKHPDASVNFSEFSKKCSERWKTMSAKEKGKFEDMAKADKARYEREMKTYIPPKGET
- effect on TNF stimulating activity of full length HMGB1 [3]: significantly attenuated the TNF stimulating activity of full length HMGB1
- outcome of animals ([4]; 60 μg/mouse): most died
- clinical behaviour of animals ([4]; 600 μg/mouse, vs vector controls or 60 μg): significantly more alert, active, and to resume feeding behavior
